Assay results published in ChEMBL document CHEMBL6127052, “Discovery of membrane-targeting amphiphilic honokiol derivatives containing an oxazolethione moiety to combat methicillin-resistant Staphylococcus aureus (MRSA) infections” (Eur J Med Chem, 2024).
The source made the active and inactive calls. The rule behind the calls is not given here.

Tests used:
Staphylococcus aureus [1] = assay: Antibacterial activity against methicillin-resistant Staphylococcus aureus clinical isolate M11 by CLSI based micro-broth dilution method; format: functional
Staphylococcus aureus [2] = assay: Antibacterial activity against methicillin-resistant Staphylococcus aureus clinical isolate M13 by CLSI based micro-broth dilution method; format: functional
Staphylococcus aureus [3] = assay: Antibacterial activity against methicillin-resistant Staphylococcus aureus clinical isolate M22 by CLSI based micro-broth dilution method; format: functional
Staphylococcus aureus [4] = assay: Antibacterial activity against methicillin-resistant Staphylococcus aureus clinical isolate M23 by CLSI based micro-broth dilution method; format: functional
Staphylococcus aureus [5] = assay: Induction of morphological changes in methicillin-resistant Staphylococcus aureus clinical isolate M12 assessed as irregular change in cell surface at 8 times MIC incubated for 4 hrs by SEM analysis; format: functional, organism-based
Staphylococcus aureus [6] = assay: Induction of membrane permeability in methicillin-resistant Staphylococcus aureus clinical isolate M12 at 8 to 32 times MIC measured every 2 mins for 10 times by SYTOX Green dye based analysis; format: functional, organism-based
Staphylococcus aureus [7] = assay: Induction of membrane depolarization in methicillin-resistant Staphylococcus aureus clinical isolate M12 at 32 times MIC measured for 10 mins by DiSC3(5) dye based analysis; format: functional, organism-based
Staphylococcus aureus [8] = assay: Antibacterial activity against methicillin-resistant Staphylococcus aureus clinical isolate M12 incubated for 16 to 18 hrs in presence of cardiolipin; format: functional; settings: time 16-18 hrs
Staphylococcus aureus [9] = assay: Antibacterial activity against methicillin-resistant Staphylococcus aureus clinical isolate M12 incubated for 16 to 18 hrs in presence of phosphatidylethanolamine; format: functional; settings: time 16-18 hrs
Staphylococcus aureus [10] = assay: Disruption of cell membrane in methicillin-resistant Staphylococcus aureus clinical isolate M12 assessed as fold increase in intracellular ROS level at 128 ug/ml incubated for 40 mins by DCFH-DA probe based analysis relative to control; format: functional; settings: dose 128 µg/ml
Staphylococcus aureus [11] = assay: Disruption of cell membrane in methicillin-resistant Staphylococcus aureus clinical isolate M12 assessed as fold increase in protein leakage at 8 times MIC incubated for 4 hrs by BCA assay relative to control; format: functional
[12] = Toxicity in KM mouse assessed as formation of small erythema at administration site at >40 mg/kg, sc; format: organism-based; settings: in vivo
[13] = Toxicity in KM mouse assessed as adverse effect at 20 mg/kg, sc; format: organism-based; settings: in vivo
[14] = Toxicity in KM mouse assessed as change in creatinine level at 20 mg/kg, sc measured after 24 hrs; format: organism-based; settings: in vivo
[15] = Toxicity in KM mouse assessed as change in HCT level at 20 mg/kg, sc measured after 24 hrs; format: organism-based; settings: in vivo
[16] = Toxicity in KM mouse assessed as change in MCV level at 20 mg/kg, sc measured after 24 hrs; format: organism-based; settings: in vivo
[17] = Toxicity in KM mouse assessed as clear skin section at 20 mg/kg, sc measured after 24 hrs by H and E staining based analysis; format: organism-based; settings: in vivo
[18] = Toxicity in KM mouse assessed as inflammatory cells in skin section at 20 mg/kg, sc measured after 24 hrs by H and E staining based analysis; format: organism-based; settings: in vivo
[19] = Toxicity in KM mouse assessed as edema in cardiac muscle fibers at 20 mg/kg, sc measured after 24 hrs by H and E staining based analysis; format: organism-based; settings: in vivo
[20] = Toxicity in KM mouse assessed as necrosis in lung epithelial cells at 20 mg/kg, sc measured after 24 hrs by H and E staining based analysis; format: organism-based; settings: in vivo
[21] = Toxicity in KM mouse assessed as inflammatory cell infiltration in lung epithelial cells at 20 mg/kg, sc measured after 24 hrs by H and E staining based analysis; format: organism-based; settings: in vivo
[22] = Toxicity in KM mouse assessed as necrosis in renal tubular epithelial cells at 20 mg/kg, sc measured after 24 hrs by H and E staining based analysis; format: organism-based; settings: in vivo
[23] = Toxicity in KM mouse assessed as pathological change in kidney at 20 mg/kg, sc measured after 24 hrs by H and E staining based analysis; format: organism-based; settings: in vivo
[24] = Toxicity in KM mouse assessed as pathological change in skin at 20 mg/kg, sc measured after 24 hrs by H and E staining based analysis; format: organism-based; settings: in vivo
[25] = Toxicity in BALB/c mouse assessed as knotted hair at 40 mg/kg, ip bid for 7 days; format: organism-based; settings: in vivo, 168 h, time 7 day
[26] = Toxicity in BALB/c mouse assessed as inflammatory cell infiltration in hepatocytes at 15 mg/kg, ip bid for 7 days; format: organism-based; settings: in vivo, 168 h, time 7 day
Staphylococcus aureus [27] = assay: Bactericidal activity against methicillin-resistant Staphylococcus aureus clinical isolate M12 infected in KM mouse assessed as decrease in inflammatory cells in epidermis at 10 mg/kg, sc measured after 24 hrs; format: functional, organism-based
Staphylococcus aureus [28] = assay: Antibacterial activity against methicillin-resistant Staphylococcus aureus clinical isolate M12 infected in KM mouse assessed as reduction in TNF-alpha level at infection site at 5 mg/kg, sc measured after 24 hrs by ELISA; format: functional
Staphylococcus aureus [29] = assay: Antibacterial activity against methicillin-resistant Staphylococcus aureus clinical isolate M12 infected in KM mouse assessed as reduction in IL-6 level at infection site at 5 mg/kg, sc measured after 24 hrs by ELISA; format: functional
[30] = Toxicity in KM mouse infected with methicillin-resistant Staphylococcus aureus clinical isolate M12 assessed as histopathological abnormality in heart at 5 to 10 mg/kg, sc measured after 24 hrs by H and E staining based analysis; format: organism-based; settings: in vivo, dose 5-10 mg/kg
[31] = Toxicity in KM mouse infected with methicillin-resistant Staphylococcus aureus clinical isolate M12 assessed as histopathological abnormality in liver at 5 to 10 mg/kg, sc measured after 24 hrs by H and E staining based analysis; format: organism-based; settings: in vivo, dose 5-10 mg/kg
[32] = Toxicity in KM mouse infected with methicillin-resistant Staphylococcus aureus clinical isolate M12 assessed as damage in lung at 5 to 10 mg/kg, sc measured after 24 hrs by H and E staining based analysis; format: organism-based; settings: in vivo, dose 5-10 mg/kg
[33] = Toxicity in KM mouse infected with methicillin-resistant Staphylococcus aureus clinical isolate M12 assessed as damage in kidney at 5 to 10 mg/kg, sc measured after 24 hrs by H and E staining based analysis; format: organism-based; settings: in vivo, dose 5-10 mg/kg
Staphylococcus aureus [34] = assay: Antibacterial activity against methicillin-resistant Staphylococcus aureus clinical isolate M12 infected in sepsis BALB/c mouse model assessed as decrease in bacterial load in kidney at 12 mg/kg, ip administered consecutively at 12 hr-interval for 24 hrs measured after 24 hrs post-last dose; format: functional; settings: time 48 hrs
[35] = Toxicity in sepsis BALB/c mouse model infected with methicillin-resistant Staphylococcus aureus clinical isolate M12 assessed as survival rate at 6 mg/kg, ip administered consecutively at 12 hr-interval for 7 days measured after 24 hrs post-last dose; format: organism-based; settings: in vivo, 192 h, time 8 day
Staphylococcus aureus [36] = assay: (§1) Antibacterial activity against methicillin-resistant Staphylococcus aureus clinical isolate M12 infected in sepsis BALB/c mouse model assessed as decrease in necrosis in hepatocytes at 6 mg/kg, ip administered consecutively at 12 hr-interval for 24 hrs measured after 24 hrs post-last dose by H and E staining based analysis; format: functional, organism-based; settings: time 48.0 hrs
Staphylococcus aureus [37] = assay: as §1, with “pathological change” for “necrosis”, “red medulla of spleen” for “hepatocytes”, “12” for “6”; format: functional, organism-based; settings: time 48.0 hrs
Staphylococcus aureus [38] = assay: as §1, with “renal tubular epithelial cells” for “hepatocytes”, “6 to 12” for “6”; format: functional, organism-based; settings: dose 6-12 mg/kg, time 48.0 hrs

C=CCc1cc(-c2ccc(OCCC[N+](C)(C)CC(=O)NCCCC)c(CC=C)c2)c2oc(=S)n(Cc3ccc(F)cc3)c2c1.[Br-]
MIC (Staphylococcus aureus [1]): 4 µg/mL
MIC (Staphylococcus aureus [2]): 4 µg/mL
MIC (Staphylococcus aureus [3]): 4 µg/mL
MIC (Staphylococcus aureus [4]): 2 µg/mL
Activity (Staphylococcus aureus [5]): Active
Activity (Staphylococcus aureus [6]): Active
Activity (Staphylococcus aureus [7]): Active
MIC (Staphylococcus aureus [8]): 32 µg/mL
MIC (Staphylococcus aureus [9]): 2 µg/mL
fold change (FC) (Staphylococcus aureus [10]): ~1.8
fold change (FC) (Staphylococcus aureus [11]): ~4
Activity [12]: Toxic
Activity [13]: Non-Toxic
Activity [14]: Non-Toxic
Activity [15]: Non-Toxic
Activity [16]: Non-Toxic
Activity [17]: Non-Toxic
Activity [18]: Non-Toxic
Activity [19]: Non-Toxic
Activity [20]: Non-Toxic
Activity [21]: Non-Toxic
Activity [22]: Non-Toxic
Activity [23]: Non-Toxic
Activity [24]: Non-Toxic
Activity [25]: Toxic
Activity [26]: Non-Toxic
Activity (Staphylococcus aureus [27]): Active
Activity (Staphylococcus aureus [28]): 91.5 pg/mL
Activity (Staphylococcus aureus [29]): 65.6 pg/mL
Activity [30]: Non-Toxic
Activity [31]: Non-Toxic
Activity [32]: Non-Toxic
Activity [33]: Non-Toxic
Activity (Staphylococcus aureus [34]): 1.45 log10CFU/g
Survival [35]: 16.7%
Activity (Staphylococcus aureus [36]): inactive
Activity (Staphylococcus aureus [37]): Active
Activity (Staphylococcus aureus [38]): Active
